Experiments:
Type in all cases: biochemical
Cs_Gaf159A [1] = target: T1, Cs_Gaf159A (Caldicellulosiruptor saccharolyticus, UniProt A4XGP0); assay: product inhibition, pNPA hydrolysis; conditions: read-out: % inhibition at 500 mM
T1 construct: gene Csac_0437; full-length (no signal peptide), C-terminal His6 tag, pET24c(+), E. coli BL21 Star, IMAC

Ch_Gaf159A [2] = target: T2, Ch_Gaf159A (Caldicellulosiruptor hydrothermalis, UniProt E4QB49); assay: product inhibition, pNPA hydrolysis; conditions: read-out: % inhibition at 500 mM
T2 construct: gene Calhy_0274; full-length (no signal peptide), C-terminal His6 tag, pET24c(+), E. coli BL21 Star, IMAC; monomer

Ck_Gaf159A = target: T3, Ck_Gaf159A (Caldicellulosiruptor kronotskyensis, UniProt E4SDK8); assay: product inhibition, pNPA hydrolysis; conditions: read-out: % inhibition at 500 mM
T3 construct: gene Calkro_0290; full-length (no signal peptide), C-terminal His6 tag, pET24c(+), E. coli BL21 Star, IMAC

Cs_Gaf159A [3] = target: T1, Cs_Gaf159A; assay: pNP release, […] nm, Michaelis-Menten; conditions: 90 °C, pH 6.5 MOPS, 10 mM CaCl2, 10 min; saturation not reached
Ch_Gaf159A [4] = target: T2, Ch_Gaf159A; assay: pNP release, […] nm, Michaelis-Menten; conditions: 82 °C, pH 6.5 MOPS, 10 mM CaCl2, 10 min; saturation not reached

T2 sequence (E4QB49 entry or part of it): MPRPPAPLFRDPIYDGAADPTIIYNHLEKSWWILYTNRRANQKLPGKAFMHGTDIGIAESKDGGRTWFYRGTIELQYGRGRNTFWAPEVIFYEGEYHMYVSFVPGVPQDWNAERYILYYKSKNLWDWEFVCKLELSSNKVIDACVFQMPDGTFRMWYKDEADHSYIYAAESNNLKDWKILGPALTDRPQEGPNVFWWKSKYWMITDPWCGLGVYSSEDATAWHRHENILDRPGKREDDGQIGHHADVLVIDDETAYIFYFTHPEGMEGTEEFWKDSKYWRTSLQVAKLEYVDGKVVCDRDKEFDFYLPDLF
T1 sequence (A4XGP0 entry or part of it): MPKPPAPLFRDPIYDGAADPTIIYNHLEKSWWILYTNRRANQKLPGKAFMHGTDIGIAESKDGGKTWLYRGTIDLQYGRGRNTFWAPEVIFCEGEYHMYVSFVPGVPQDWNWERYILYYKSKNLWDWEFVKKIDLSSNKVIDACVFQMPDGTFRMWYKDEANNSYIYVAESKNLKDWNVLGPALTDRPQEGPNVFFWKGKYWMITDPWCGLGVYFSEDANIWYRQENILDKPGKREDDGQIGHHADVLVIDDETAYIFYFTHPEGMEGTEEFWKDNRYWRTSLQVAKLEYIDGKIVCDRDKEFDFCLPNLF
T3 sequence (E4SDK8 entry or part of it): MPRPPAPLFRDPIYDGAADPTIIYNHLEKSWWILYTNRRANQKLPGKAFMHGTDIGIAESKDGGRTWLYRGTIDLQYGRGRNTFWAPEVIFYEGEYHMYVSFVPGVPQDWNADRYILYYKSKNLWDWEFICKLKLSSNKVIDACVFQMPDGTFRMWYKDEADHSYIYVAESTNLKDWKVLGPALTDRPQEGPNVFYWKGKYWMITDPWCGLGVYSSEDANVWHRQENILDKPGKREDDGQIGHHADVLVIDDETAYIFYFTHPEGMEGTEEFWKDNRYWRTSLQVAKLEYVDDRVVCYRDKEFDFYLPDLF

| SMILES | inhibition at 500000 µM (Cs_Gaf159A [1]) | inhibition at 500000 µM (Ch_Gaf159A [2]) | inhibition at 500000 µM (Ck_Gaf159A) | Km (Cs_Gaf159A [3]) | Km (Ch_Gaf159A [4]) |
| --- | --- | --- | --- | --- | --- |
| OC1OC[C@H](O)[C@H](O)[C@H]1O (some centres unmarked) [arabinose] | < 50% | < 50% | < 50% |  |  |
| O=[N+]([O-])c1ccc(O[C@@H]2O[C@@H](CO)[C@H](O)[C@H]2O)cc1 [pNPA, pNP-α-L-arabinofuranoside] |  |  |  | > 10 mM | > 10 mM |
